One data set concerns the target T1, ADAM10 (Homo sapiens, UniProt O14672).
T1 sequence (O14672 214-748): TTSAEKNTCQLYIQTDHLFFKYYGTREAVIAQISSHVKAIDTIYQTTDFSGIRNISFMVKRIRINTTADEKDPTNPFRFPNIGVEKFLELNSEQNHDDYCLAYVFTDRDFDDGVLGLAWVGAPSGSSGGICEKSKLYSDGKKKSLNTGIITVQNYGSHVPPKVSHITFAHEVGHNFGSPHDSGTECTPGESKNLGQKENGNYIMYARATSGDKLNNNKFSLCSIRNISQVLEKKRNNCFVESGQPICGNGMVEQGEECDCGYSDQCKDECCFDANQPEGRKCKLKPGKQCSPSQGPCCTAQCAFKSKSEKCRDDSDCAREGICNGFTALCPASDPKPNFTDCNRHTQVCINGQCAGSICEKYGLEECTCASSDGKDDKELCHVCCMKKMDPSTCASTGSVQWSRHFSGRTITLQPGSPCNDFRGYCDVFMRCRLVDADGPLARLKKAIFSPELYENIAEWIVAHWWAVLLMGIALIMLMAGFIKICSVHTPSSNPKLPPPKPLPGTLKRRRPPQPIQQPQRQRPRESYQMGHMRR
Kind of data set: Off-target metalloprotease inhibition, ADAM10. The format is biochemical. The conditions noted are these: for remaining activity at 10 µM: read-out: Residual activity ADAM10.

Another data set concerns the target T2, human meprin α (Homo sapiens, UniProt Q16819).
T2 sequence (Q16819 66-746): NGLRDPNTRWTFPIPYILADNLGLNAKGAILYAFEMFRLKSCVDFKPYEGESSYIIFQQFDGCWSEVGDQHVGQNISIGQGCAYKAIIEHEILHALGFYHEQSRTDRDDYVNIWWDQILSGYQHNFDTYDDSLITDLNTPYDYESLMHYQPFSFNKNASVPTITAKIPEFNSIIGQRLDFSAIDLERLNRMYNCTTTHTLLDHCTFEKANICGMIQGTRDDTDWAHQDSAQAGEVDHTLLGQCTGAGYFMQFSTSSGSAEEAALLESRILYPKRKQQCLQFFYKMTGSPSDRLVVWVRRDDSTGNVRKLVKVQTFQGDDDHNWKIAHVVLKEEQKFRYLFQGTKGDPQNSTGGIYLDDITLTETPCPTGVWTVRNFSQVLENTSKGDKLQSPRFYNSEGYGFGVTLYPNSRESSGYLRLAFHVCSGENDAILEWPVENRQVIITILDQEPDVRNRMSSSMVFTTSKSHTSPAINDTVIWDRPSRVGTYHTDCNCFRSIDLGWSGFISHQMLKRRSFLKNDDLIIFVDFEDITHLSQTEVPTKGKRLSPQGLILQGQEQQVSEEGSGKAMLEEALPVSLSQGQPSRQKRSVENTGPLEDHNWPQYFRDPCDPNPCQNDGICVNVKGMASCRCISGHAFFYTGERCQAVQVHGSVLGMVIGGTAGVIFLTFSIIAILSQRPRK
The format is biochemical. The note with it: for Ki: Ki(app) Meprin α, geometric mean of three independent experiments with standard deviation factor; for SF: selectivity factor (Ki(app) meprin β/Ki(app) meprin α): meprin α over meprin β.

A further data set addresses ADAM17 (Homo sapiens, UniProt P78536). Kind of data set: Off-target metalloprotease inhibition, ADAM17. The data set is classed as biochemical. The conditions noted are these: for remaining activity at 10 µM: read-out: Residual activity ADAM17.
A further data set concerns the target MMP9 (Homo sapiens, UniProt P14780). Kind of data set: Off-target metalloprotease inhibition, MMP9. The data set is classed as biochemical. The note with it: read-out: Residual activity MMP9.
The target in another data set is MMP13 (Homo sapiens, UniProt P45452). Kind of data set: Off-target metalloprotease inhibition, MMP13. The note with it: read-out: Residual activity MMP13. The data set is classed as biochemical.
For another data set, the target named is T3, MMP2 (Homo sapiens, UniProt P08253).
T3 sequence (P08253 110-660): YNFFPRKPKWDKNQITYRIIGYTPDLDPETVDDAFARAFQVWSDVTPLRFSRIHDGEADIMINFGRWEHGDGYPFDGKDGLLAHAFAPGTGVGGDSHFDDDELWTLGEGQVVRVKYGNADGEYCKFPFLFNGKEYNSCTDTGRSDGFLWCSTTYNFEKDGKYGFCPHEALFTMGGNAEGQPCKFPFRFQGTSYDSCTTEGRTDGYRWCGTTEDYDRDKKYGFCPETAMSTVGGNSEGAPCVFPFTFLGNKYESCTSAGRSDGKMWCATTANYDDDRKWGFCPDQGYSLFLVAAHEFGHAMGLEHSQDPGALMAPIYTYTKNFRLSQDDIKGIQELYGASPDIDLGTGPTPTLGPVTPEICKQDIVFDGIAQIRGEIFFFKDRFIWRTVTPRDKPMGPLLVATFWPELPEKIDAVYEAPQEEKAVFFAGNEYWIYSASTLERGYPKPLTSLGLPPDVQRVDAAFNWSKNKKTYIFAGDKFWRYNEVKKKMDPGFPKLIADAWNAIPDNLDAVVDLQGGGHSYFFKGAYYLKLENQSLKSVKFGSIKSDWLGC
Kind of data set: Off-target metalloprotease inhibition, MMP2. The data set is classed as biochemical. The conditions noted are these: for remaining activity at 10 µM: read-out: Residual activity MMP2.

Data set [1] is described as follows: Cell viability assay. The data set is classed as cell-based. The note with it: human, SH-SY5Y cells.
The nature of data set [2]: Cell viability assay. The data set is classed as cell-based. The conditions noted are these: human, Hep-G2 cells.
The target in the next data set is T4, human meprin β (Homo sapiens, UniProt Q16820).
T4 sequence (Q16820 62-701): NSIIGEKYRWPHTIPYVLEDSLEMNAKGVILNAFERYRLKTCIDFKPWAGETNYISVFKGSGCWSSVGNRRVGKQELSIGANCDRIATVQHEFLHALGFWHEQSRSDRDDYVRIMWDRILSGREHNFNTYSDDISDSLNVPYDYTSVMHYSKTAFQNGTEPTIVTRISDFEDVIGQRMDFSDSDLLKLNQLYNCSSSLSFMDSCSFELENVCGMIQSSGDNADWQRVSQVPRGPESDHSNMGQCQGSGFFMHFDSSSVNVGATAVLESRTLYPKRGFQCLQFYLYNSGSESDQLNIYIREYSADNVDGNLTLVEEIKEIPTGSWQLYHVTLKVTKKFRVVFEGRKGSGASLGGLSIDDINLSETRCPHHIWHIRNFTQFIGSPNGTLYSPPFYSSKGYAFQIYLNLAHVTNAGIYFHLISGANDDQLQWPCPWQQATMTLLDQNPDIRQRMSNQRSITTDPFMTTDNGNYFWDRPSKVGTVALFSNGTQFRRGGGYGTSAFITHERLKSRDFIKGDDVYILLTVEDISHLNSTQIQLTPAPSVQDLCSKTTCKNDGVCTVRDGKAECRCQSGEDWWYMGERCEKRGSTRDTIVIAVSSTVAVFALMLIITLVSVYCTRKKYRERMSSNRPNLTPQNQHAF
The format is biochemical. The note with it: for Ki: Ki(app) Meprin β, geometric mean of three independent experiments with standard deviation factor; for increased inhibition of meprin β by factor: in comparison to the N-phenyl pyrazole 21b.

Sequence of MMP9 (P14780 107-707 limits assumed): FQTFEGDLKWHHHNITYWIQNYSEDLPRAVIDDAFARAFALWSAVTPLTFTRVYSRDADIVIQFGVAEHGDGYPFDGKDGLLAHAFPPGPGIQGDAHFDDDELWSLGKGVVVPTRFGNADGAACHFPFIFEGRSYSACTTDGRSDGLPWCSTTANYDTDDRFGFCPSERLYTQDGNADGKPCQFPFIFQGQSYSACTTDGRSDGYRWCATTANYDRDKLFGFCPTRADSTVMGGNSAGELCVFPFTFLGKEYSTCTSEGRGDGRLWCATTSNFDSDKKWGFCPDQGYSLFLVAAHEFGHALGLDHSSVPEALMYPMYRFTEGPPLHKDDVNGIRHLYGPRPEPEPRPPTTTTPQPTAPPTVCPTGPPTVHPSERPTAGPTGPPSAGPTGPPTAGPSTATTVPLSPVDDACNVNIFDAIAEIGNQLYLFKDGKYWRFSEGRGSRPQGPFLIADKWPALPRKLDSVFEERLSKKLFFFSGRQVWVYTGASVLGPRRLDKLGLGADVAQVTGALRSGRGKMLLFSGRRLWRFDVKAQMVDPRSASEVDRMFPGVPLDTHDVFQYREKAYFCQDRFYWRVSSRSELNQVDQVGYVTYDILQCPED
Sequence of ADAM17 (P78536 215-824): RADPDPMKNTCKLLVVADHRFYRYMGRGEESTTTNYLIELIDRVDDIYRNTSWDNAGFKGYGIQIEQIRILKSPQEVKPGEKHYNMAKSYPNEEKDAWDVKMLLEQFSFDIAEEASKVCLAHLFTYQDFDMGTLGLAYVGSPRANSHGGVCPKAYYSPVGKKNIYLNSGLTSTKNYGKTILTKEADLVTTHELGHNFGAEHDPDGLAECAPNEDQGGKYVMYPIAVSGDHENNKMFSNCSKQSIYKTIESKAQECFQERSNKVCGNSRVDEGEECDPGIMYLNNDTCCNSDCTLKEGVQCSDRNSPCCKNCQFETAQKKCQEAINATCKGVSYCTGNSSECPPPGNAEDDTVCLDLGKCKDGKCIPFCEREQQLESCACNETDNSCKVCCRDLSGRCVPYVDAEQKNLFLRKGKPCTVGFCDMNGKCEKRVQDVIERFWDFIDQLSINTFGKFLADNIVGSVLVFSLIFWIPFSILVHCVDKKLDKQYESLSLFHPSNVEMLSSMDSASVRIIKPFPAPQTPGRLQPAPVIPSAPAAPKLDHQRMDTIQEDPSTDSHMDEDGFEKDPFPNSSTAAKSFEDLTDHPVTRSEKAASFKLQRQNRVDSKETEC

For the compound `O=C(Cc1c(-c2ccc3c(c2)OCO3)n[nH]c1-c1ccc2c(c1)OCO2)NO` [16a, 2-[3,5-Bis(1,3-benzodioxol-5-yl)-1H-pyrazol-4-yl]ethanehydroxamic acid], the half-inhibitory concentration (IC50) against ADAM10 was 12000 nM; at ADAM17, 9600 nM. In addition, the remaining activity at 10 µM was 62% on ADAM10, 57% on ADAM17 and 63% on MMP9. Further, the Ki on human meprin α was found to be 0.6 nM.

For `COc1ccc(-c2n[nH]c(-c3ccccc3)c2CC(=O)NO)cc1OC` [14g, 2-[3-(3,4-Dimethoxyphenyl)-5-phenyl-1H-pyrazol-4-yl]ethanehydroxamic acid], the remaining activity at 10 µM on ADAM10 came out at 87%; at ADAM17, 65%; at MMP13 it was 101%; on MMP2 it was 83%; at MMP9, 90%. In addition, the Ki at human meprin α amounted to 0.7 nM. For the same compound, at human meprin α, the “SF: selectivity factor (Ki(app) meprin β/Ki(app) meprin α)” value (shortened to “SF: selectivity factor”) is reported as 117. The values for the viability at 24 h, 30 µM in the data set “Cell viability assay [1]” and in the data set “Cell viability assay [2]” were 85% and 99%, respectively.

With `COc1cccc(-c2n[nH]c(-c3ccccc3)c2CC(=O)NO)c1` [14d, 2-[3-(3-Methoxyphenyl)-5-phenyl-1H-pyrazol-4-yl]ethanehydroxamic acid], the remaining activity at 10 µM turned out to be 68% on ADAM10; 52% on ADAM17; 85% on MMP13; 78% on MMP2; 80% on MMP9. The compound further registered a Ki at human meprin α of 1.1 nM. The “SF: selectivity factor” value at human meprin α was 105. The IC50 on ADAM17 is 11600 nM. Moreover, the viability at 24 h, 30 µM turned out to be 84% in “Cell viability assay [1]” and 104% in “Cell viability assay [2]”.

As for `O=C(Cc1c(-c2ccc(C(=O)O)cc2)n[nH]c1-c1ccc(Cl)c(O)c1F)NO` [16h, 4-[5-(4-Chloro-2-fluoro-3-hydroxy-phenyl)-4-[2-(hydroxyamino)-2-oxo-ethyl]-1H-pyrazol-3-yl]benzoic acid], the Ki on human meprin β was 11.2 nM. On human meprin α, the Ki was 9.6 nM and the “SF: selectivity factor” value was 1.

Turning to `O=C(Cc1c(-c2cccc(-c3nnn[nH]3)c2)n[nH]c1-c1ccccc1)NO` [14p, 2-[5-Phenyl-3-[3-(1H-tetrazol-5-yl)phenyl]-1H-pyrazol-4-yl]ethanehydroxamic acid], the Ki at human meprin β was 6.7 nM. Besides, the “improvement in activity against meprin β by factor” value on human meprin β (compared to 7a) came out at 16. For the same compound, on human meprin α, the Ki was 0.7 nM and the “SF: selectivity factor” value was determined as 10.

Consider `O=C(Cc1c(-c2cccc(C(=O)O)c2)[nH]nc1[C@H]1CC[C@@H](C(=O)O)CC1)NO` [16m, 3-[3-(Cis-4-Carboxycyclohexyl)-4-[2-(hydroxyamino)-2-oxo-ethyl]-1H-pyrazol-5-yl]benzoic acid], for which, at human meprin β, the Ki worked out at 14.5 nM. Also, at human meprin α, the Ki stood at 21 nM and the “SF: selectivity factor” value came to 0.7.

For `O=C(Cc1c(-c2ccccc2)nn(-c2ccc(C(=O)O)cc2)c1-c1ccccc1)NO` [21d, 4-[4-[2-(Hydroxyamino)-2-oxo-ethyl]-3,5-diphenyl-pyrazol-1-yl]benzoic acid], at human meprin β, the Ki was found to be 182 nM and the “increased inhibition of meprin β by factor” value worked out at 3. In addition, at human meprin α, the Ki stood at 4 nM and the “SF: selectivity factor” value stood at 46.

As for `O=C(Cc1c(-c2ccccc2)nn(-c2cccc(C(=O)O)c2)c1-c1ccccc1)NO` [21c, 3-[4-[2-(Hydroxyamino)-2-oxo-ethyl]-3,5-diphenyl-pyrazol-1-yl]benzoic acid], at human meprin β, the Ki amounted to 212 nM and the “increased inhibition of meprin β by factor” value was 3. For the same compound, at human meprin α, the Ki turned out to be 4 nM and the “SF: selectivity factor” value came out at 53.

At human meprin β, `O=C(Cc1c(-c2ccc(C(=O)O)cc2)n[nH]c1-c1cccc(C(=O)O)c1)NO` [16g, 3-[3-(4-Carboxyphenyl)-4-[2-(hydroxyamino)-2-oxo-ethyl]-1H-pyrazol-5-yl]benzoic acid] yielded a Ki of 32.5 nM. In addition, on human meprin α, the Ki was 20.3 nM and the “SF: selectivity factor” value is reported as 2.

Regarding `O=C(Cc1c(-c2ccc3c(c2)OCO3)n[nH]c1-c1ccccc1)NO` [14f, 2-[3-(1,3-Benzodioxol-5-yl)-5-phenyl-1H-pyrazol-4-yl]ethanehydroxamic acid], the IC50 on ADAM10 was determined as 13900 nM; against ADAM17 it was 7400 nM; at MMP2, 5300 nM. In addition, the remaining activity at 10 µM at ADAM10 turned out to be 59%; at ADAM17, 51%; on MMP13, 71%; at MMP2, 41%; on MMP9, 72%. Moreover, the Ki on human meprin α stood at 1.1 nM. In addition, the “SF: selectivity factor” value on human meprin α was found to be 99. The viability at 24 h, 30 µM is 90% in “Cell viability assay [1]” and 96% in the data set “Cell viability assay [2]”.

As for `Cn1nc(-c2ccccc2)c(CC(=O)NO)c1-c1ccccc1` [21a, 2-(1-Methyl-3,5-diphenyl-pyrazol-4-yl)ethanehydroxamic acid], the Ki on human meprin β turned out to be 437 nM. Moreover, on human meprin α, the Ki amounted to 5 nM and the “SF: selectivity factor” value is 87.

As for `O=C(Cc1c([C@@H]2CCCC[C@@H]2C(=O)O)n[nH]c1-c1cccc(C(=O)O)c1)NO` (relative stereo) [16k, 3-[4-[2-(Hydroxyamino)-2-oxo-ethyl]-3-[cis-2-carboxycyclohexyl]-1H-pyrazol-5-yl]benzoic acid], the figures for the Ki at human meprin β and at human meprin α were 5.2 nM and 0.4 nM, respectively. Further, at human meprin α, the “SF: selectivity factor” value is 13.
